Assays:
Test in all cases: normalised response (% of control), CellTiter-Glo; higher = more viable cells (100 = DMSO, 0 = benzethonium chloride kill control)
Conditions in all cases: incubation time: 72 h
BT-474 = system: BT-474
Summary of the method: (§1)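 Each value is the plate-normalised signal at one concentration of the series. Breast cancer cell lines (20 µl suspension) were incubated 72 h in 384-well plates with compound at 5 concentrations in 10-fold steps over a compound-specific 10,000-fold range. CellTox Green and then CellTiter-Glo were read, and each plate was scaled to 0.1 % DMSO (100) and a positive kill control (0).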

BT-549 = system: BT-549
Summary of the method: as §1

CAL-120 = system: CAL-120
Summary of the method: as §1

CAL-148 = system: CAL-148
Summary of the method: as §1

CAL-51 = system: CAL-51
Summary of the method: as §1

CAL-85-1 = system: CAL-85-1
Summary of the method: as §1

DU-4475 = system: DU-4475
Summary of the method: as §1

HCC1143 = system: HCC1143
Summary of the method: as §1

HCC1599 = system: HCC1599
Summary of the method: as §1

HCC1937 = system: HCC1937
Summary of the method: as §1

HDQ-P1 = system: HDQ-P1
Summary of the method: as §1

Hs578T = system: Hs578T
Summary of the method: as §1

MCF-10A = system: MCF-10A
Summary of the method: as §1

MDA-MB-231 = system: MDA-MB-231
Summary of the method: as §1

MDA-MB-436 = system: MDA-MB-436
Summary of the method: as §1

MDA-MB-453 = system: MDA-MB-453
Summary of the method: as §1

MDA-MB-468 = system: MDA-MB-468
Summary of the method: as §1

MFM-223 = system: MFM-223
Summary of the method: as §1

SK-BR-3 = system: SK-BR-3
Summary of the method: as §1

SMILES | normalised response (BT-474) [%] | normalised response (BT-549) [%] | normalised response (CAL-120) [%] | normalised response (CAL-148) [%] | normalised response (CAL-51) [%] | normalised response (CAL-85-1) [%] | normalised response (DU-4475) [%] | normalised response (HCC1143) [%] | normalised response (HCC1599) [%] | normalised response (HCC1937) [%] | normalised response (HDQ-P1) [%] | normalised response (Hs578T) [%] | normalised response (MCF-10A) [%] | normalised response (MDA-MB-231) [%] | normalised response (MDA-MB-436) [%] | normalised response (MDA-MB-453) [%] | normalised response (MDA-MB-468) [%] | normalised response (MFM-223) [%] | normalised response (SK-BR-3) [%]
CCC1(c2ccc(N)cc2)CCC(=O)NC1=O (centres undefined) [Aminoglutethimide] (10 nM) | 105 | 95.2 | 100 | 100 | 151 | 105 | 104 | 108 | 97 | 99.3 | 97.5 | 97.3 | 103 | 104 | 95.4 | 90.2 | 101 | 101 | 98.7
Cn1c(CCCC(=O)O)nc2cc(N(CCCl)CCCl)ccc21 [Bendamustine] (10 nM) | 111 | 99.3 | 107 | 110 | 100 | 102 | 111 | 107 | 106 | 102 | 101 | 103 | 110 | 103 | 104 | 107 | 106 | 106 | 110
C=C(c1ccc(C(=O)O)cc1)c1cc2c(cc1C)C(C)(C)CCC2(C)C [Bexarotene] (10 nM) | 99.8 | 97.1 | 101 | 106 | 137 | 107 | 101 | 101 | 96.3 | 94.6 | 106 | 97 | 99.4 | 100 | 100 | 101 | 104 | 107 | 98.8
COc1cc2nccc(Oc3ccc(NC(=O)C4(C(=O)Nc5ccc(F)cc5)CC4)cc3)c2cc1OC [Cabozantinib] (1 nM) | 97.3 | 98.8 | 100 | 95.9 | 122 | 96.1 | 101 | 99.1 | 107 | 94.4 | 99.3 | 102 | 93.5 | 104 | 96.6 | 105 | 102 | 102 | 101
N.N.[Cl][Pt][Cl] [Cisplatin] (0.1 nM) | 101 | 106 | 102 | 85.7 | 115 | 97.2 | 92 | 95.2 | 110 | 101 | 101 | 102 | 103 | 99.7 | 98.2 | 98.9 | 97.3 | 96.9 | 98.6
C[C@@H](Oc1cc(-c2cnn(C3CCNCC3)c2)cnc1N)c1c(Cl)ccc(F)c1Cl [Crizotinib] (0.1 nM) | 101 | 104 | 102 | 102 | 82.4 | 92.6 | 106 | 99.3 | 82 | 100 | 96.7 | 96.2 | 95.6 | 102 | 96.7 | 111 | 91.7 | 103 | 81.6
COc1cc2ncnc(Nc3ccc(F)c(Cl)c3)c2cc1NC(=O)/C=C/CN1CCCCC1 [Dacomitinib] (0.1 nM) | 99 | 102 | 94 | 109 | 71.8 | 97.5 | 95.3 | 107 | 93.7 | 104 | 99.8 | 98.5 | 101 | 102 | 102 | 99.9 | 101 | 102 | 99.6
C[C@]12CC[C@@H]3c4ccc(O)cc4C[C@@H](CCCCCCCCC[S+]([O-])CCCC(F)(F)C(F)(F)F)[C@H]3[C@@H]1CC[C@@H]2O (some centres undefined) [Fulvestrant] (0.1 nM) | 101 | 109 | 95.7 | 102 | 123 | 101 | 102 | 95.3 | 93.4 | 105 | 101 | 112 | 107 | 100 | 105 | 112 | 101 | 107 | 108
O=P1(NCCCl)OCCCN1CCCl (centres undefined) [Ifosfamide] (10 nM) | 96.8 | 95.9 | 93.2 | 86.1 | 118 | 100 | 92.5 | 98.1 | 89.3 | 95.8 | 98 | 102 | 96.1 | 101 | 94 | 87.7 | 91.6 | 89.1 | 94.9
CC(C)Cn1cnc2c(N)nc3ccccc3c21 [Imiquimod] (0.25 nM) | 102 | 99 | 96.5 | 99.6 | 96.8 | 103 | 104 | 99.2 | 99.2 | 97.1 | 94.2 | 99 | 111 | 101 | 99.6 | 109 | 91.9 | 100 | 110
N#CCNC(=O)c1ccc(-c2ccnc(Nc3ccc(N4CCOCC4)cc3)n2)cc1 [Momelotinib] (1 nM) | 89.8 | 95.1 | 96.9 | 94.2 | 128 | 94.6 | 95.3 | 97.6 | 94.7 | 97.7 | 100 | 97.2 | 90.4 | 97.2 | 97.8 | 91.9 | 98.2 | 92.3 | 95.8
N#CCNC(=O)c1ccc(-c2ccnc(Nc3ccc(N4CCOCC4)cc3)n2)cc1 [Momelotinib] (10 nM) | 94.2 | 99.6 | 95.1 | 94.9 | 80.9 | 97.1 | 97.2 | 100 | 89.8 | 96.8 | 103 | 104 | 103 | 97.4 | 101 | 89.5 | 92.8 | 94.2 | 115
CC1(C)NC(=O)N(c2ccc([N+](=O)[O-])c(C(F)(F)F)c2)C1=O [Nilutamide] (10 nM) | 105 | 105 | 97.9 | 112 | 127 | 96 | 109 | 101 | 113 | 101 | 95.6 | 99.1 | 110 | 102 | 110 | 103 | 93.3 | 112 | 117
CCCCCCCCCCCCCCCCCCOP(=O)([O-])OC1CC[N+](C)(C)CC1 [Perifosine] (0.25 nM) | 99.4 | 107 | 108 | 99.2 | 102 | 96.5 | 92.7 | 103 | 113 | 98.8 | 106 | 108 | 101 | 99.6 | 116 | 105 | 99 | 92.3 | 92.3
CCCCCCCCCCCCCCCCCCOP(=O)([O-])OC1CC[N+](C)(C)CC1 [Perifosine] (2.5 nM) | 104 | 99.5 | 102 | 95.9 | 81 | 101 | 94.7 | 102 | 61.5 | 101 | 108 | 98.9 | 98.4 | 100 | 95.2 | 101 | 97.4 | 92.8 | 92.8
Cc1ccc(C(=O)Nc2ccc(CN3CCN(C)CC3)c(C(F)(F)F)c2)cc1C#Cc1cnc2cccnn12 [Ponatinib] (1 nM) | 104 | 106 | 106 | 99.5 | 101 | 108 | 100 | 97.1 | 103 | 98.4 | 104 | 97.3 | 103 | 97.2 | 108 | 98.2 | 107 | 99.5 | 99.4
CS(=O)(=O)c1ccc(C2=C(c3ccccc3)C(=O)OC2)cc1 [Rofecoxib] (1 nM) | 103 | 106 | 98.6 | 108 | 69.4 | 98.4 | 106 | 110 | 99.1 | 107 | 101 | 104 | 114 | 104 | 103 | 98.5 | 108 | 111 | 112
N[C@@H](CSC(c1ccccc1)(c1ccccc1)c1ccccc1)C(=O)O [S-trityl-L-cysteine] (40 nM) | 96.7 | 99.2 | 102 | 97.5 | 131 | 104 | 101 | 92.7 | 109 | 93.8 | 119 | 94.3 | 105 | 90.4 | 103 | 95 | 98.5 | 107 | 97.5
CC(=O)Nc1ccc(C(=O)Nc2ccccc2N)cc1 [Tacedinaline] (0.1 nM) | 102 | 99.5 | 92.1 | 93.2 | 113 | 104 | 100 | 92.9 | 100 | 98.4 | 94.2 | 96.7 | 98.4 | 98.9 | 101 | 104 | 105 | 97.1 | 105
CC(=O)Nc1ccc(C(=O)Nc2ccccc2N)cc1 [Tacedinaline] (1 nM) | 105 | 96.2 | 97.9 | 95.3 | 124 | 95.8 | 97.6 | 99.5 | 109 | 92.7 | 98.9 | 96 | 93.5 | 97.6 | 101 | 103 | 98.3 | 101 | 97.1
O=C1CCC(N2C(=O)c3ccccc3C2=O)C(=O)N1 (centres undefined) [Thalidomide] (10 nM) | 94 | 99.7 | 94.2 | 92.6 | 65.4 | 100 | 97.2 | 97.3 | 102 | 95.3 | 96.1 | 100 | 100 | 98.4 | 95.8 | 96.3 | 91.9 | 97.5 | 98.9

Source: the supplement of paper PMC4862054
